Experimental data published in US10323043B2, “Derivatives of macrocyclic N-aryl-tricyclopyrimidine-2-amine polyethers as inhibitors of FTL3 and JAK” (PIERRE FABRE MEDICAMENT, priority 2014, dated 2019).

Columns and labels:
FLT3 = target: T1, FLT3 (Homo sapiens, UniProt P36888); experiment: LanthaScreen TR-FRET binding test, FLT3; settings: recombinant FLT3 15 nM, kinase tracer 236 3 nM, 25° C., 1 hour; read-out: Inhibition (IC50) of FLT3 enzyme
T1 construct: purchased Life Technologies PV3182
T1 sequence (P36888 564-993 limits assumed): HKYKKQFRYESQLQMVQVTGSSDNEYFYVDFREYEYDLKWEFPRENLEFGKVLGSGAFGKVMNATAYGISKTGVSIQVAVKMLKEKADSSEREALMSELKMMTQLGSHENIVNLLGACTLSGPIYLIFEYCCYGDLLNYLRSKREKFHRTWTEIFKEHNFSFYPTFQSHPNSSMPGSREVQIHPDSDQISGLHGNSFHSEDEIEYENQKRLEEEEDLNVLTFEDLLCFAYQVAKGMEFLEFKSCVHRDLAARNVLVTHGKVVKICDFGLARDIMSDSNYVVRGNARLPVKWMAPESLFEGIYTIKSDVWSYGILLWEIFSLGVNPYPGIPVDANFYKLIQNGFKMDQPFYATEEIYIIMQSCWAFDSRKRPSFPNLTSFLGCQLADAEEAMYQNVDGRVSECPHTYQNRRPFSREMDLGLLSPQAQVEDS
Description: (§1) FLT3 (#PV3182), JAK2 (#PV4210) and JAK3 (#PV3855) recombinant enzymes were purchased from Life Technologies. FLT3-ITD (#0778-0000-1) and FLT3^D835Y (#14-610) proteins were purchased from ProQinase and Merck Millipore, respectively. All the tests were carried out in 384-well plates. The principle of these binding tests is based on the LanthaScreen® TR-FRET methodology from Life Technologies.
(§2) The reaction mixture (15 μL total volume) contains the following compounds: 15 nM FLT3, FLT3-ITD or FLT3^D835Y, 3 nM kinase tracer 236 (Life Technologies, #PV5592) and 6 nM LanthaScreen® anti-GST antibody coupled to a europium chelate (Life Technologies, #PV5594) for FLT3-ITD and FLT3^D835Y or 6 nM LanthaScreen® anti-His antibody coupled to a europium chelate (Life Technologies, #PV5596) for FLT3.
(§3) The compounds are evaluated at 8 different concentrations prepared by making dilutions from a starting 10 mM stock solution in dimethylsulfoxide (DMSO) (Sigma, #D8418). The final DMSO concentration in the test is 1%. The reaction is carried out at 25° C. for 1 hour and detected on the EnVision® reader (Perkin Elmer) according to the recommendations of the supplier, Life Technologies.
(§4) The results are presented (Table 1) as the concentration values of the compound at which 50% of the kinase activity is inhibited, IC50 (μM), generated using the PRISM software (GraphPad).

FLT3-ITD = target: T2, FLT3-ITD (Homo sapiens, UniProt P36888); experiment: LanthaScreen TR-FRET binding test, FLT3-ITD; settings: FLT3-ITD 15 nM, kinase tracer 236 3 nM, 25° C., 1 hour; read-out: Inhibition (IC50) of FLT3-ITD enzyme
T2 construct: FLT3-ITD (#0778-0000-1) and FLT3^D835Y (#14-610) proteins were purchased from ProQinase and Merck Millipore, respectively; fused on or other part: GST tag, inferred from detection with the anti-GST europium antibody
T2 sequence (P36888 1-993): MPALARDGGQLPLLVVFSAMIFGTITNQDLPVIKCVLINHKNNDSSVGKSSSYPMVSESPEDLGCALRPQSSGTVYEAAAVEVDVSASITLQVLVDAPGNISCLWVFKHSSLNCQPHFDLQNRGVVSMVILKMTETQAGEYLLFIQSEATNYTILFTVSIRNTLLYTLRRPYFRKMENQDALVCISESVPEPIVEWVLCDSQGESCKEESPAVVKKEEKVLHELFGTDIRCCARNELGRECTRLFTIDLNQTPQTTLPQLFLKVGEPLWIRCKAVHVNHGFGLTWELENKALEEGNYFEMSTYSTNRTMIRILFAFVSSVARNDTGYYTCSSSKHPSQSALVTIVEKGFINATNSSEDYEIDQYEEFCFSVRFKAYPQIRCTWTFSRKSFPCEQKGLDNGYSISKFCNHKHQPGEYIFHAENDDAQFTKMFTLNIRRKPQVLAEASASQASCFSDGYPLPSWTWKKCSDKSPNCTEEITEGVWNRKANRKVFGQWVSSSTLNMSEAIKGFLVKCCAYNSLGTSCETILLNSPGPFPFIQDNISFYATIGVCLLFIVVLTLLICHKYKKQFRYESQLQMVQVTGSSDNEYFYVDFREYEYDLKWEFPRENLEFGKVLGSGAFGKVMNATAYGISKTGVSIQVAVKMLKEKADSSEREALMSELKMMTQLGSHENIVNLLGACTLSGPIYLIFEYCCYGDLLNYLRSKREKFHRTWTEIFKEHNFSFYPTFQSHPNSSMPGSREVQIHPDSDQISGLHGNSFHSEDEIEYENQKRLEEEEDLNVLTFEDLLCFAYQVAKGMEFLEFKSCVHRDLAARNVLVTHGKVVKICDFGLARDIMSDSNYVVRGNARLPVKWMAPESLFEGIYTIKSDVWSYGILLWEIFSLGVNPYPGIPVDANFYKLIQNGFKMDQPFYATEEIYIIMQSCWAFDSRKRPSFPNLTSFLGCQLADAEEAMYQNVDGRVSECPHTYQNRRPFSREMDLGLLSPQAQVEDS
Description: as §1, §2, §3, §4

JAK2 = target: T3, JAK2 (Homo sapiens, UniProt O60674); experiment: LanthaScreen TR-FRET binding test, JAK2; settings: recombinant JAK2 15 nM, kinase tracer 236 150 nM, 25° C., 1 hour; read-out: Inhibition (IC50) of JAK2 enzyme
T3 construct: purchased Life Technologies PV4210
Description: as §1
The reaction mixture (15 μL total volume) contains the following compounds: 15 nM JAK2 or JAK3, 150 nM kinase tracer 236 (Life Technologies, #PV5592) for JAK2 or 3 nM for JAK3 and 6 nM LanthaScreen® anti-GST antibody coupled to a europium chelate (Life Technologies, #PV5594) for both enzymes.
as §3, §4

MOLM-13 cell line = experiment: Antiproliferative activity (ATPLite cell viability), MOLM-13; assay type: cell-based; settings: Homo sapiens, MOLM-13 (acute myeloid leukemia, FLT3-ITD), 72 h incubation, read-out: Cytotoxicity (EC50) on MOLM13 cell line
Description: The characteristics of the cell lines used are as follows (Table 2):
MV4-11 and MOLM-13 cell lines are cultured in the culture medium specified in Table 2 above and according to the supplier's recommendations. The tests are carried out in 96-well plates. The cells are divided in two at D0. At D1, they are seeded and treated with the compounds at various concentrations and incubated for 72 h at 37° C. and 5% CO2. The dilution of the compounds from stock solutions in DMSO (Sigma, #D8418) was made semi-logarithmically for a final concentration in the culture medium of 0.1%. At day 4, cell viability is evaluated by assaying the ATP released by the living cells using the ATPLite® kit (Perkin Elmer, #6016947). The EC50 values (concentration of the compound necessary to obtain 50% of the maximum effect) are calculated using curve-fitting software.

T3 sequence (O60674 whole entry): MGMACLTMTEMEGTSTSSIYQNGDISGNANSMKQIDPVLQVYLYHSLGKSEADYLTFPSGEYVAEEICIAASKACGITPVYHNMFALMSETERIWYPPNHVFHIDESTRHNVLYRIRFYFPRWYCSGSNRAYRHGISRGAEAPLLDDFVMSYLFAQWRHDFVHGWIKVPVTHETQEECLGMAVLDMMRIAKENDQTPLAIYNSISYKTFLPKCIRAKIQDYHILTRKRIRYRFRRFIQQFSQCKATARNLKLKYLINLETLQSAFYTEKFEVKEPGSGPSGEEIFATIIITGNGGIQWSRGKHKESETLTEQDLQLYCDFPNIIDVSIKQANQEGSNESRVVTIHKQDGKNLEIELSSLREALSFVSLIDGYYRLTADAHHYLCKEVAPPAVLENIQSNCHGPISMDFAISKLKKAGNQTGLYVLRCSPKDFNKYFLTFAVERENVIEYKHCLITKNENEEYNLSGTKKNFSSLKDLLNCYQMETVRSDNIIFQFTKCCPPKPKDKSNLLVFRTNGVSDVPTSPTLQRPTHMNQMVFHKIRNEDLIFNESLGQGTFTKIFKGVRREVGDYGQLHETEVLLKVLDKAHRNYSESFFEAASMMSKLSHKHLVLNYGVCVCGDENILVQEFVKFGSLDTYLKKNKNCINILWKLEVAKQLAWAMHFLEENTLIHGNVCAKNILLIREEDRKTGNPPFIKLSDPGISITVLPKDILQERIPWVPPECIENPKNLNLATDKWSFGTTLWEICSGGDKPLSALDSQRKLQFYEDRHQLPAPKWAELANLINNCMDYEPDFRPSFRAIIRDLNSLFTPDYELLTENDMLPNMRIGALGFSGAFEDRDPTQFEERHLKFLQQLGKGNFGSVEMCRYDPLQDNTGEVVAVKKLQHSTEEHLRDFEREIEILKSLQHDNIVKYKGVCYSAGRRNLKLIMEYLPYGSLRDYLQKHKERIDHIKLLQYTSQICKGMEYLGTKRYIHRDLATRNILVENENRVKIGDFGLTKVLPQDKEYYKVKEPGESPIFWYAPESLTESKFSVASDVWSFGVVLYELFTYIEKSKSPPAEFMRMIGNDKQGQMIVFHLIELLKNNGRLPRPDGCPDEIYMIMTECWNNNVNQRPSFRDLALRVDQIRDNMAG

IC50 (FLT3) [nM]	IC50 (FLT3-ITD) [nM]	IC50 (JAK2) [nM]	Compound	EC50 (MOLM-13 cell line) [nM]
4.4	1.3	13	c1cc(N2CCNCC2)c2cc1Nc1ncc3c(n1)-c1cc(ccc1CC3)OCCOCCO2 [Compound 5]	1.8
1.9	0.51	7.25	CN1CCN(c2ccc3cc2OCCOCCOc2ccc4c(c2)-c2nc(ncc2CC4)N3)CC1(C)C [Compound 40]	20
3.7	0.79	11.5	c1cc(N2CC3CNCC3C2)c2cc1Nc1ncc3c(n1)-c1cc(ccc1CC3)OCCOCCO2 (stereo not drawn) [Compound 29]	15
3.2	1	10	CN(C)C1CCN(c2ccc3cc2OCCOCCOc2ccc4c(c2)-c2nc(ncc2CC4)N3)C1 (stereo not drawn) [Compound 30]	15
2.5	0.14	17.5	CN1CCN(c2ccc3cc2OCCOCCOc2ccc4c(c2)-c2nc(ncc2CC4)N3)CC1 [Compound 3]	5.6
6	1.3	7.7	c1cc(N2CCC(N3CCCCC3)CC2)c2cc1Nc1ncc3c(n1)-c1cc(ccc1CC3)OCCOCCO2 [Compound 10]	6
18	6.4	40	c1cc(N2CCC(N3CCOCC3)C2)c2cc1Nc1ncc3c(n1)-c1cc(ccc1CC3)OCCOCCO2 (stereo not drawn) [Compound 7]	34
3.6	2.4	20	OC1CCN(c2ccc3cc2OCCOCCOc2ccc4c(c2)-c2nc(ncc2CC4)N3)CC1 [Compound 19]	13.4
4.5	1.7	130	CN1CC=C(c2ccc3cc2OCCOCCOc2ccc4c(c2)-c2nc(ncc2CC4)N3)CC1 [Compound 23]	6.6
5.2	1.5	33.5	c1cc(N2C[C@H]3C[C@@H]2CN3)c2cc1Nc1ncc3c(n1)-c1cc(ccc1CC3)OCCOCCO2 [Compound 44]	8.8
7	2	34	c1cc(OCCN2CCCC2)c2cc1Nc1ncc3c(n1)-c1cc(ccc1CC3)OCCOCCO2 [Compound 14]	4.5

Compound	IC50 (FLT3) [nM]	IC50 (FLT3-ITD) [nM]	IC50 (JAK2) [nM]	EC50 (MOLM-13 cell line) [nM]
c1cc(N2CC3CCC(C2)N3)c2cc1Nc1ncc3c(n1)-c1cc(ccc1CC3)OCCOCCO2 [Compound 42]	3.2	1.1	6.7	7
